Experimental data taken from PubChem BioAssay (NCI).
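Interpolation was linear, between the two tested concentrations surrounding the appropriate level; five concentrations were tested over 48 hours in 96-well plates. GI50 is the concentration that inhibits growth by half. TGI marks complete inhibition of growth.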

Key:
Assay in all cases: NCI-60 cell line screen, 48 h
KM12 colon = test system: KM12 colon
T-47D breast = test system: T-47D breast
TK-10 renal = test system: TK-10 renal
ACHN renal = test system: ACHN renal
HOP-92 NSCLC = test system: HOP-92 NSCLC
HS 578T breast = test system: HS 578T breast
UACC-62 melanoma = test system: UACC-62 melanoma
RXF 393 renal = test system: RXF 393 renal
MOLT-4 leukemia = test system: MOLT-4 leukemia
SF-268 CNS = test system: SF-268 CNS
SF-539 CNS = test system: SF-539 CNS
OVCAR-3 ovarian = test system: OVCAR-3 ovarian
SNB-75 CNS = test system: SNB-75 CNS
EKVX NSCLC = test system: EKVX NSCLC
HCT-15 colon = test system: HCT-15 colon
UO-31 renal = test system: UO-31 renal
MDA-MB-435 = test system: MDA-MB-435
DU-145 prostate = test system: DU-145 prostate
CAKI-1 renal = test system: CAKI-1 renal
SK-MEL-2 melanoma = test system: SK-MEL-2 melanoma
SK-MEL-28 melanoma = test system: SK-MEL-28 melanoma
LOX IMVI melanoma = test system: LOX IMVI melanoma
HCT-116 colon = test system: HCT-116 colon
UACC-257 melanoma = test system: UACC-257 melanoma
RPMI-8226 leukemia = test system: RPMI-8226 leukemia
M14 melanoma = test system: M14 melanoma
MDA-MB-231 breast = test system: MDA-MB-231 breast
CCRF-CEM leukemia = test system: CCRF-CEM leukemia
IGROV1 ovarian = test system: IGROV1 ovarian
A498 renal = test system: A498 renal
BT-549 breast = test system: BT-549 breast
PC-3 prostate = test system: PC-3 prostate
786-0 renal = test system: 786-0 renal
OVCAR-8 ovarian = test system: OVCAR-8 ovarian
MCF7 breast = test system: MCF7 breast
K-562 leukemia = test system: K-562 leukemia
HOP-62 NSCLC = test system: HOP-62 NSCLC
OVCAR-5 ovarian = test system: OVCAR-5 ovarian
SK-MEL-5 melanoma = test system: SK-MEL-5 melanoma
SN12C renal = test system: SN12C renal
OVCAR-4 ovarian = test system: OVCAR-4 ovarian
HT29 colon = test system: HT29 colon
U251 CNS = test system: U251 CNS
SW-620 colon = test system: SW-620 colon
SK-OV-3 ovarian = test system: SK-OV-3 ovarian
SF-295 CNS = test system: SF-295 CNS
NCI-H226 lung = test system: NCI-H226 lung
A549 NSCLC = test system: A549 NSCLC
NCI-H23 lung = test system: NCI-H23 lung
NCI/ADR-RES ovarian = test system: NCI/ADR-RES ovarian
COLO 205 colon = test system: COLO 205 colon
NCI-H522 lung = test system: NCI-H522 lung
HCC-2998 colon = test system: HCC-2998 colon
SNB-19 CNS = test system: SNB-19 CNS
NCI-H460 lung = test system: NCI-H460 lung

Compound: NC1CC(=O)c2ccccc21 (centres undefined)
- TGI (KM12 colon): > 100 µM
- TGI (T-47D breast): > 100 µM
- TGI (TK-10 renal): > 100 µM
- TGI (ACHN renal): > 100 µM
- TGI (HOP-92 NSCLC): > 100 µM
- TGI (HS 578T breast): > 100 µM
- TGI (UACC-62 melanoma): > 100 µM
- TGI (RXF 393 renal): > 100 µM
- TGI (MOLT-4 leukemia): > 100 µM
- TGI (SF-268 CNS): > 100 µM
- TGI (SF-539 CNS): > 100 µM
- TGI (OVCAR-3 ovarian): > 100 µM
- TGI (SNB-75 CNS): > 100 µM
- TGI (EKVX NSCLC): > 100 µM
- TGI (HCT-15 colon): > 100 µM
- TGI (UO-31 renal): > 100 µM
- TGI (MDA-MB-435): > 100 µM
- TGI (DU-145 prostate): > 100 µM
- TGI (CAKI-1 renal): > 100 µM
- TGI (SK-MEL-2 melanoma): > 100 µM
- TGI (SK-MEL-28 melanoma): > 100 µM
- TGI (LOX IMVI melanoma): > 100 µM
- TGI (HCT-116 colon): > 100 µM
- TGI (UACC-257 melanoma): > 100 µM
- TGI (RPMI-8226 leukemia): > 100 µM
- TGI (M14 melanoma): > 100 µM
- TGI (MDA-MB-231 breast): > 100 µM
- TGI (CCRF-CEM leukemia): > 100 µM
- TGI (IGROV1 ovarian): > 100 µM
- TGI (A498 renal): > 100 µM
- TGI (BT-549 breast): > 100 µM
- TGI (PC-3 prostate): > 100 µM
- TGI (786-0 renal): > 100 µM
- TGI (OVCAR-8 ovarian): > 100 µM
- TGI (MCF7 breast): > 100 µM
- TGI (K-562 leukemia): > 100 µM
- TGI (HOP-62 NSCLC): > 100 µM
- TGI (OVCAR-5 ovarian): > 100 µM
- TGI (SK-MEL-5 melanoma): > 100 µM
- TGI (SN12C renal): > 100 µM
- TGI (OVCAR-4 ovarian): > 100 µM
- TGI (HT29 colon): > 100 µM
- TGI (U251 CNS): > 100 µM
- TGI (SW-620 colon): > 100 µM
- TGI (SK-OV-3 ovarian): > 100 µM
- TGI (SF-295 CNS): > 100 µM
- TGI (NCI-H226 lung): > 100 µM
- TGI (A549 NSCLC): > 100 µM
- TGI (NCI-H23 lung): > 100 µM
- TGI (NCI/ADR-RES ovarian): > 100 µM
- TGI (COLO 205 colon): > 100 µM
- TGI (NCI-H522 lung): > 100 µM
- TGI (HCC-2998 colon): > 100 µM
- TGI (SNB-19 CNS): > 100 µM

Compound: CC(=O)O[C@H]1[C@@H]2OC(=O)C3(CC3)C2C[C@H]2O[C@]2(C)CC/C=C(\C)CCC[C@@H]1C (some centres undefined)
- GI50 (KM12 colon): 18.4 µM
- TGI (KM12 colon): 36.5 µM
- GI50 (T-47D breast): 43.7 µM
- TGI (T-47D breast): > 100 µM
- GI50 (TK-10 renal): 23.9 µM
- TGI (TK-10 renal): 46.9 µM
- GI50 (ACHN renal): 21 µM
- TGI (ACHN renal): 44.2 µM
- GI50 (HOP-92 NSCLC): 4.58 µM
- TGI (HOP-92 NSCLC): 63 µM
- GI50 (HS 578T breast): 19 µM
- TGI (HS 578T breast): 50.2 µM
- GI50 (UACC-62 melanoma): 17.1 µM
- TGI (UACC-62 melanoma): 46.1 µM
- GI50 (RXF 393 renal): 14.8 µM
- TGI (RXF 393 renal): 37.7 µM
- GI50 (MOLT-4 leukemia): 18.1 µM
- TGI (MOLT-4 leukemia): 41.3 µM
- GI50 (SF-268 CNS): 27.7 µM
- TGI (SF-268 CNS): > 100 µM
- GI50 (NCI-H460 lung): 24.6 µM
- TGI (NCI-H460 lung): 58.2 µM
- GI50 (SF-539 CNS): 23.3 µM
- TGI (SF-539 CNS): 50.8 µM
- GI50 (OVCAR-3 ovarian): 17.5 µM
- TGI (OVCAR-3 ovarian): 32.9 µM
- GI50 (SNB-75 CNS): 38.1 µM
- TGI (SNB-75 CNS): > 100 µM
- GI50 (EKVX NSCLC): 30.1 µM
- TGI (EKVX NSCLC): > 100 µM
- GI50 (HCT-15 colon): 26.8 µM
- TGI (HCT-15 colon): 70 µM
- GI50 (UO-31 renal): 25.5 µM
- TGI (UO-31 renal): 64.2 µM
- GI50 (MDA-MB-435): 24.2 µM
- TGI (MDA-MB-435): 54.3 µM
- GI50 (DU-145 prostate): 19.6 µM
- TGI (DU-145 prostate): 39.1 µM
- GI50 (CAKI-1 renal): 19.8 µM
- TGI (CAKI-1 renal): 42.1 µM
- GI50 (SK-MEL-2 melanoma): 19.5 µM
- TGI (SK-MEL-2 melanoma): 49.5 µM
- GI50 (SK-MEL-28 melanoma): 36.7 µM
- TGI (SK-MEL-28 melanoma): > 100 µM
- GI50 (LOX IMVI melanoma): 15.8 µM
- TGI (LOX IMVI melanoma): 46.2 µM
- GI50 (HCT-116 colon): 15.7 µM
- TGI (HCT-116 colon): 37.3 µM
- GI50 (UACC-257 melanoma): 43.4 µM
- TGI (UACC-257 melanoma): > 100 µM
- GI50 (RPMI-8226 leukemia): 23.8 µM
- TGI (RPMI-8226 leukemia): 55.2 µM
- GI50 (M14 melanoma): 19.1 µM
- TGI (M14 melanoma): 43.6 µM
- GI50 (MDA-MB-231 breast): 20.5 µM
- TGI (MDA-MB-231 breast): 48.7 µM
- GI50 (CCRF-CEM leukemia): 17.2 µM
- TGI (CCRF-CEM leukemia): 37.8 µM
- GI50 (IGROV1 ovarian): 16.4 µM
- TGI (IGROV1 ovarian): 45.2 µM
- GI50 (A498 renal): 27.4 µM
- TGI (A498 renal): > 100 µM
- GI50 (BT-549 breast): 18.7 µM
- TGI (BT-549 breast): 46.2 µM
- GI50 (PC-3 prostate): 19 µM
- TGI (PC-3 prostate): 49.6 µM
- GI50 (786-0 renal): 25.8 µM
- TGI (786-0 renal): 92 µM
- GI50 (OVCAR-8 ovarian): 27.8 µM
- TGI (OVCAR-8 ovarian): > 100 µM
- GI50 (MCF7 breast): 37.1 µM
- TGI (MCF7 breast): > 100 µM
- GI50 (K-562 leukemia): 14.3 µM
- TGI (K-562 leukemia): 37.7 µM
- GI50 (HOP-62 NSCLC): 37.7 µM
- TGI (HOP-62 NSCLC): > 100 µM
- GI50 (OVCAR-5 ovarian): 76.5 µM
- TGI (OVCAR-5 ovarian): > 100 µM
- GI50 (SK-MEL-5 melanoma): 14.8 µM
- TGI (SK-MEL-5 melanoma): 29 µM
- GI50 (SN12C renal): 22.7 µM
- TGI (SN12C renal): 49.7 µM
- GI50 (OVCAR-4 ovarian): 38 µM
- TGI (OVCAR-4 ovarian): > 100 µM
- GI50 (HT29 colon): 36.8 µM
- TGI (HT29 colon): > 100 µM
- GI50 (U251 CNS): 22.6 µM
- TGI (U251 CNS): 49.9 µM
- GI50 (SW-620 colon): 23.7 µM
- TGI (SW-620 colon): 55.9 µM
- GI50 (SK-OV-3 ovarian): 80.5 µM
- TGI (SK-OV-3 ovarian): > 100 µM
- GI50 (SF-295 CNS): 40.2 µM
- TGI (SF-295 CNS): > 100 µM
- GI50 (NCI-H226 lung): 24.1 µM
- TGI (NCI-H226 lung): 66.5 µM
- GI50 (A549 NSCLC): 20.3 µM
- TGI (A549 NSCLC): 46 µM
- GI50 (NCI-H23 lung): 22.1 µM
- TGI (NCI-H23 lung): > 100 µM
- GI50 (NCI/ADR-RES ovarian): 23.3 µM
- TGI (NCI/ADR-RES ovarian): 67.5 µM
- GI50 (COLO 205 colon): 34 µM
- TGI (COLO 205 colon): > 100 µM
- GI50 (NCI-H522 lung): 21.1 µM
- TGI (NCI-H522 lung): 48.4 µM
- GI50 (HCC-2998 colon): 19.8 µM
- TGI (HCC-2998 colon): 50.9 µM
- GI50 (SNB-19 CNS): 62.4 µM
- TGI (SNB-19 CNS): > 100 µM
